Experimental findings from US6710040B1, “Fluorinated cyclic amides as dipeptidyl peptidase IV inhibitors” (Pfizer Inc., priority 2002, dated 2004) are described below.

Where a name gives a salt, the structure may show the parent alone. A value given as a limit tells only on which side of the number the result lay.

For the compound `Cl.N[C@H](C(=O)N1CC(F)(F)C1)C1CCCCC1`, the melting point is 220 °C (dec.).

`N[C@H](C(=O)N1CC(F)C1)C1CCCCC1` (as salt: hydrochloride) [Example 5, (S)-2-Amino-2-cyclohexyl-1-(3-fluoro-azetidin-1-yl)-ethanone] displayed a melting point of 238 to 240 °C. The figure for `CC[C@@H](C)[C@H](N)C(=O)N1CC(F)(F)C(F)(F)C1` (as salt: hydrochloride) [Example 4, (2S,3R)-2-Amino-3-methyl-1-(3,3,4,4-tetrafluoro-pyrrolidin-1-yl)-pentan-1-one] is over 250 °C; for `CC[C@H](C)[C@H](N)C(=O)N1CCC(F)(F)C1` [Example 8, (2S,3S)-2-Amino-1-(3,3-difluoro-pyrrolidin-1-yl)-3-methyl-pentan-1-one] it is 195 to 198 °C; for `N[C@H](C(=O)N1CC(F)(F)C(F)(F)C1)C1CCCCC1` (as salt: hydrochloride) [Example 3, (S)-2-Amino-2-cyclohexyl-1-(3,3,4,4-tetrafluoro-pyrrolidin-1-yl)-ethanone] it is 278 °C.

`C[C@H](N)C(=O)N1CC(F)(F)C(F)(F)C1.Cl` came in with a melting point of over 250 °C. Compound `CC[C@@H](C)[C@H](N)C(=O)N1CCC(F)(F)C1` [Example 7, (2S,3R)-2-Amino-1-(3,3-difluoro-pyrrolidin-1-yl)-3-methyl-pentan-1-one] showed a melting point of 196 to 198 °C.

With `CC(C)[C@H](N)C(=O)N1CC(F)(F)C(F)(F)C1` (as salt: hydrochloride) [Example 6, (S)-2-Amino-3-methyl-1-(3,3,4,4-tetrafluoro-pyrrolidin-1-yl)-butan-1-one], the melting point lay within 234 to 238 °C. For `CCC(C)[C@H](N)C(=O)N1CC(F)(F)C1.Cl` (some centres unmarked), the melting point was 195 °C (dec.). The figure for `CCC(C)[C@H](N)C(=O)N1CCC(F)(F)CC1.Cl` (some centres unmarked) is 190 to 192 °C; for `CC[C@H](C)[C@H](N)C(=O)N1CC(F)C1` (as salt: hydrochloride) [Example 2, (2S,3S)-2-Amino-1-(3-fluoro-azetidin-1-yl)-3-methyl-pentan-1-one] it is 208 to 210 °C.
